# Molecular target: T1, PD-1/PD-L1 (Homo sapiens, UniProt Q9NZQ7)
# T1 construct: purchased Cisbio 63ADK000CPDEC
# Assay: PD-1/PD-L1 homogeneous time-resolved fluorescence (HTRF) binding assay
# Settings: 665 nm/620 nm ratio
# Description: Test Example 1: Detect the Inhibitory Effect of the Compound to the Binding of PD-1/PD-L1 Protein
# The PD-1/PD-L1 homogeneous time-resolved fluorescence method is used to detect the binding ability of the compound with PD-L1.
# PD-1/PD-L1 binding assay kit (Cisbio, Cat #63ADK000CPDEC) was chosen, which contains two proteins Tag 1-PD-L1 and Tag 2-PD-1, and two antibodies Anti-Tag1-Eu^3+ and Anti-Tag2-XL 665. The principle of detection was: Anti-tag1-Eu^3+ was used as the donor of HTRF, and Anti-Tag2-XL 665 was used as the acceptor of HTRF. When Tag 1-PD-L1 interacts with Tag 2-PD-1, the added HTRF donor and the acceptor are close to each other. After the donor has received the excitation energy, part of the energy was transferred to the acceptor, thus generating 665 nm emission light. […] The inhibitory effect of the compound can be determined by comparing the ratio of 665 nm/620 nm. Tag 1-PD-L1 was diluted with Diluent buffer (cat #62DLBDDF) to a working concentration of 10 nM, Tag 2-PD-1 was diluted with Diluent buffer to a working concentration of 500 nM, Anti-Tag1-Eu^3+ was diluted with detection buffer (cat #62DB1FDG) at a ratio of 1:100, Anti-Tag2-XL 665 was diluted with detection buffer at a ratio of 1:20, and the compound to be detected was diluted with diluent buffer to a final concentration of 2×. Compound solution (2 μL) was added to each well of a 384-well plate, then Tag 1-PD-L1 (4 μL) and Tag 2-PD-1 (4 μL) were added successively. The mixture was incubated at room temperature for 15 minutes. Then Anti-Tag1-Eu^3+ (5 μL) and Anti-Tag2-XL 665 (5 μL) were added, and the mixture was incubated overnight at room temperature. BioTek Synergy™ Neo2 multifunctional microplate reader was used to detect so as to provide the 665 nm/620 nm ratio. PrismGraphd 5.02 was used to fit the IC50 curve.
# T1 sequence (Q9NZQ7 19-238 limits assumed): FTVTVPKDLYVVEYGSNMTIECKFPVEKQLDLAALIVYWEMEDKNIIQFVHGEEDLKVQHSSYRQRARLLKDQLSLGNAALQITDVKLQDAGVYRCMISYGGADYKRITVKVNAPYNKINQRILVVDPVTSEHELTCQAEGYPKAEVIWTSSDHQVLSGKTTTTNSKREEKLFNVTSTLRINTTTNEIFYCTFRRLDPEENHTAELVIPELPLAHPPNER
row,Compound,IC50 [nM]
1,"Cc1c(Nc2csc3cc(CNCCO)cnc23)cccc1-c1ccccc1 [Compound 1, 2-(((3-((2-Methyl-[1,1′-biphenyl]-3-yl)amino)thieno[3,2-b]pyridin-6-yl)methyl)amino)ethane-1-ol]",< 100
2,"Cc1c(Nc2csc3cc(CN4C[C@@H](O)C[C@H]4C(=O)O)cnc23)cccc1-c1ccccc1 [Compound 2, (2S,4S)-4-hydroxy-1-((3-((2-methyl-[1,1′-biphenyl]-3-yl)amino)thieno[3,2-b]pyridine-6-yl)methyl)pyrrolidine-2-carboxylic acid]",< 100
3,"NC(=O)CNCc1nc2c(Nc3cccc(-c4ccccc4)c3Cl)nccc2s1 [Compound 3, 2-(((4-((2-chloro-[1,1′-biphenyl]-3-yl)amino)thiazolo[4,5-c]pyridin-2-yl)methyl)amino) acetamide]",< 100
4,O=C(O)[C@@H]1C[C@H](O)CN1Cc1nc2c(Nc3cccc(-c4ccccc4)c3Cl)nccc2s1 [Compound 4],< 100
5,"OCCNCc1nc2c(Nc3cccc(-c4ccccc4)c3Cl)nccc2s1 [Compound 5, 2-(((4-((2-Chloro-[1,1′-biphenyl]-3-yl)amino)thiazolo[4,5-c]pyridin-2-yl)methyl)amino)ethane-1-ol]",< 100
6,"O[C@@H]1CCN(Cc2nc3c(Nc4cccc(-c5ccccc5)c4Cl)nccc3s2)C1 [Compound 6, (R)-1-((4-((2-Chloro-[1,1′-biphenyl]-3-yl)amino)thiazolo[4,5-c]pyridin-2-yl)methyl)pyrrolidin-3-ol]",100 to 1000
7,"O[C@H]1CCN(Cc2nc3c(Nc4cccc(-c5ccccc5)c4Cl)nccc3s2)C1 [Compound 7, (S)-1-((4-((2-Chloro-[1,1′-biphenyl]-3-yl)amino)thiazolo[4,5-c]pyridin-2-yl)methyl)pyrrolidin-3-ol]",100 to 1000
8,"O=C(O)CNCc1nc2c(Nc3cccc(-c4ccccc4)c3Cl)nccc2s1 [Compound 8, ((4-((2-Chloro-[1,1′-biphenyl]-3-yl)amino)thiazolo[4,5-c]pyridin-2-yl)methyl)glycine]",< 100
9,"OCCNCc1nc2c(Nc3cccc(-c4ccc5c(c4)OCCO5)c3Cl)nccc2s1 [Compound 10, 2-(((4-((2-chloro-3-(2,3-dihydrobenzo[b][1,4]dioxin-6-yl)phenyl)amino)thiazolo[4,5-c)pyridin-2-yl)methyl)amino)ethane-1-ol]",< 100
10,"OCCNCc1nc2c(Nc3cccc(-c4cccc(OCCCCN5CCC(O)C5)c4)c3Cl)nccc2s1 (centres unmarked) [Compound 12, 1-(4-((2′-chloro-3′-((2-(((2-hydroxyethyl)amino)methyl)thiazolo[4,5-c]pyridin-4-yl)amino)-[1,1′-biphenyl]-3-yl)oxo)butyl)pyrrolidin-3-ol]",< 100
11,"CN(CCCO)CCCOc1cccc(-c2cccc(Nc3nccc4sc(CNCC(=O)O)nc34)c2Cl)c1 [Compound 14, ((4-((2-chloro-3′-(3-((3-hydroxypropyl)(methyl)amino)propoxy)-[1,1′-biphenyl]-3-yl)amino)thiazolo[4,5-c]pyridin-2-yl)methyl)glycine]",< 100
12,"O=C(O)CNCc1nc2c(Nc3cccc(-c4cccc(OCCCN5CCC(O)C5)c4)c3Cl)nccc2s1 (centres unmarked) [Compound 15, ((4-((2-chloro-3′-(3-(3-hydroxypyrrolidine-1-yl)propoxy)-[1,1′-biphenyl]-3-yl)amino)thiazolo[4,5-c]pyridine-2-yl)methyl)glycine]",< 100
13,"Cc1c(OCCCN2CCC(O)C2)cccc1-c1cccc(Nc2nccc3sc(CNCC(=O)O)nc23)c1Cl (centres unmarked) [Compound 16, ((4-((2-chloro-3′-(3-(3-hydroxypyrrolidin-1-yl)propoxy)-2′-methyl-[1,1′-biphenyl]-3-yl)amino)thiazolo[4,5-c]pyridin-2-yl)methyl)glycine]",< 100
14,"OCCNCc1nc2ccnc(Nc3cccc(-c4ccccc4)c3Cl)c2s1 [Compound 17, 2-(((4-((2-chloro-[1,1′-biphenyl]-3-yl)amino)thiazolo[5,4-c]pyridin-2-yl)methyl)amino)ethane-1-ol]",100 to 1000
15,COc1nc(-c2cccc(-c3cccc(Nc4nccc5sc(CN6CC(NC(C)=O)C6)nc45)c3Cl)c2Cl)ccc1CN1CC2(CCC(=O)N2)C1 [Compound 29],< 100
16,COc1nc(-c2cccc(-c3cccc(Nc4nccc5sc(CNCC(=O)O)nc45)c3Cl)c2Cl)cc(C)c1CN1CC2(CCC(=O)N2)C1 [Compound 30],< 100
17,COc1nc(-c2cccc(-c3cccc(Nc4nccc5sc(CN6C[C@@H](O)CC6=O)nc45)c3Cl)c2Cl)ccc1CN1CC2(CCC(=O)N2)C1 [Compound 31],< 100
18,COc1nc(-c2cccc(-c3cccc(Nc4nccc5sc(CN6CC(C(=O)O)C6)nc45)c3Cl)c2Cl)ccc1CN1CC2(CCC(=O)N2)C1 [Compound 32],< 100
19,COc1nc(-c2cccc(-c3cccc(Nc4nccc5sc(CN6CCC[C@H](C(=O)O)C6)nc45)c3Cl)c2Cl)ccc1CN1CC2(CCC(=O)N2)C1 [Compound 33],< 100
20,COc1nc(-c2cccc(-c3cccc(Nc4nccc5sc(CNCc6nn[nH]n6)nc45)c3Cl)c2Cl)ccc1CN1CC2(CCC(=O)N2)C1 [Compound 39],< 100
21,COc1cc(-c2cccc(-c3cccc(Nc4nccc5sc(CN6CCC(C(=O)O)CC6)nc45)c3Cl)c2Cl)nc(C)c1CNC[C@@H]1CCC(=O)N1 [Compound 43],< 100
22,COc1nc(-c2cccc(-c3cccc(Nc4nccc5sc(CN6CC[C@H](C(=O)O)C6)nc45)c3Cl)c2Cl)cc(C)c1CNC[C@@H]1CCC(=O)N1 [Compound 44],< 100
23,COc1nc(-c2cccc(-c3cccc(Nc4nccc5sc(CN6CCC7(CNC(=O)C7)C6)nc45)c3Cl)c2Cl)cc(C)c1CNC[C@@H]1CCC(=O)N1 (some centres unmarked) [Compound 46],< 100

# Next, values leading:
row,IC50 [nM],Compound
1,< 100,"COc1nc(-c2cccc(-c3cccc(Nc4nccc5sc(CNCC(=O)O)nc45)c3Cl)c2Cl)ccc1CNC[C@@H]1CCC(=O)N1 [Compound 18, (S)-((4-((2,2′-dichloro-3′-(6-methoxy-5-((((5-carbonylpyrrolidin-2-yl)methyl)amino)methyl)pyridin-2-yl)-[1,1′-biphenyl]-3-yl)amino)thiazolo[4,5-c]pyridin-2-yl)methyl)glycine]"
2,< 100,"COc1nc(-c2cccc(-c3cccc(Nc4nccc5sc(CNCC(=O)OCc6oc(=O)oc6C)nc45)c3Cl)c2Cl)ccc1CNC[C@@H]1CCC(=O)N1 [Compound 19, (5-methyl-2-carbonyl-1,3-dioxazole-4-yl) methyl (S)-((4-((2,2′-dichloro-3′-(6-methoxy-5-((5-carbonylpyrrolidin-2-yl)methyl)pyridine-2-yl)-[1,1′-biphenyl]-3-yl)amino)thiazolo [4,5-c]pyridine-2-yl)methyl) glycine]"
3,< 100,COc1nc(-c2cccc(-c3cccc(Nc4nccc5sc(CNCC(=O)O)nc45)c3Cl)c2C)ccc1CNC[C@@H]1CCC(=O)N1 [Compound 20]
4,< 100,Cc1c(-c2ccc(CNC[C@@H]3CCC(=O)N3)c(O)n2)cccc1-c1cccc(Nc2nccc3sc(CNCC(=O)O)nc23)c1Cl [Compound 21]
5,< 100,COc1nc(-c2cccc(-c3cccc(Nc4nccc5sc(CNCC(=O)O)nc45)c3Cl)c2Cl)ccc1CN1CC2(CCC(=O)N2)C1 [Compound 22]
6,< 100,O=C(O)CNCc1nc2c(Nc3cccc(-c4cccc(-c5ccc(CNC[C@@H]6CCC(=O)N6)c(O)n5)c4Cl)c3Cl)nccc2n1CCO [Compound 23]
7,< 100,COc1nc(-c2cccc(-c3cccc(Nc4nccc5sc(CNCC#N)nc45)c3Cl)c2Cl)ccc1CNC[C@@H]1CCC(=O)N1 [Compound 24]
8,< 100,COc1nc(-c2cccc(-c3cccc(Nc4nccc5sc(CNCC(=O)O)nc45)c3Cl)c2Cl)ccc1CN1CCC2(CNC(=O)C2)C1 (centres unmarked) [Compound 25]
9,100 to 1000,COc1nc(-c2cccc(-c3cccc(Nc4nccc5sc(CNCC(=O)O)nc45)c3Cl)c2Cl)cnc1CNC[C@@H]1CCC(=O)N1 [Compound 26]
10,< 100,COc1nc(-c2cccc(-c3cccc(Nc4nccc5sc(CNCC(=O)O)nc45)c3Cl)c2Cl)cc(C)c1CNC[C@@H]1CCC(=O)N1 [Compound 27]
11,< 100,COc1nc(-c2cccc(-c3cccc(Nc4nccc5sc(CNCC(=O)O)nc45)c3Cl)c2Cl)c(Cl)cc1CNC[C@@H]1CCC(=O)N1 [Compound 28]
12,< 100,COc1nc(-c2cccc(-c3cccc(Nc4nccc5sc(CN6CCC(C(=O)O)CC6)nc45)c3Cl)c2Cl)ccc1CNC[C@@H]1CCC(=O)N1 [Compound 40]
13,< 100,COc1nc(-c2cccc(-c3cccc(Nc4nccc5sc(CN6CCC[C@@H]6C(=O)O)nc45)c3Cl)c2Cl)ccc1CNC[C@@H]1CCC(=O)N1 [Compound 41]
14,< 100,COc1nc(-c2cccc(-c3cccc(Nc4nccc5sc(CN6CCCC[C@@H]6C(=O)O)nc45)c3Cl)c2Cl)ccc1CNC[C@@H]1CCC(=O)N1 [Compound 42]
15,< 100,COc1nc(-c2cccc(-c3cccc(Nc4nccc5sc(CN6CC[C@@H](C(=O)O)C6)nc45)c3Cl)c2Cl)cc(C)c1CNC[C@@H]1CCC(=O)N1 [Compound 45]

# Reference: US20210347785A1, “PREPARATION AND APPLICATION OF AROMATIC COMPOUND HAVING IMMUNOREGULATORY FUNCTION” (SHANGHAI ENNOVABIO PHARMACEUTICALS CO., LTD., priority 2018, published 2021)
